How the values were obtained:
Assay type in all cases: cell-based, human
[1] = tested on: motor neurons induced to differentiate from iPS cells derived from SALS patients; assay: Stress granules, sporadic ALS model (Example III-4); conditions: final concentration 1 μM, days 35 to 40, measured on day 40, FIG. 13
From the text: (§1) In the same manner as in Example I-1, iPS cells derived from sporadic ALS (may be referred to below as “SALS”) patients were differentiated into motor neurons. All the iPS cells used were derived from dermal fibroblasts. Below, each differentiated motor neuron is identified by the patient number from whom the neuron was derived.
(§2) In the same manner as in Example II-1, iPS cells derived from sporadic ALS (SALS) patients were induced to differentiate into motor neurons, and ropinirole with a final concentration of 1 μM was added to the medium. More specifically, for the period of days 35 to 40 from the start of differentiation induction, ropinirole having a final concentration of 1 μM was added to the medium. In addition, a group for which ropinirole was not added to the medium was prepared as a control. In addition, for comparison, iPS cells derived from healthy subjects were differentiated into motor neurons in the same manner as in Example I-1. No ropinirole was added to the medium of these motor neurons. As the iPS cells derived from a healthy subject, the same cells as used in Example I-1 were used.
Subsequently, on day 40 from the start of differentiation induction, the number of stress granules was measured for each motor neuron in the same manner as in Example I-7.
FIG. 13 is a graph showing the measurement result of the number of stress granules. […]

[2] = tested on: motor neurons induced to differentiate from iPS cells derived from SALS patients; assay: CV caspase 3-positive ratio, sporadic ALS model (Example III-2); conditions: final concentration 1 μM, days 35 to 40, measured on day 40, FIG. 11
From the text: as §1
as §2, with “and then” for “and”
Subsequently, on day 40 from the start of differentiation induction, the ratio of CV caspase 3-positive neurons was measured for each motor neuron in the same manner as in Example I-3.
FIG. 11 is a graph showing the measurement results of the ratio of CV caspase 3-positive neurons. […]

[3] = tested on: motor neurons induced to differentiate from iPS cells derived from ALS patients (TDP-43-ALS) having a mutation in TDP-43; assay: Neurite length, TDP-43-ALS motor neurons (screening, Example I-8)
Experimental: For each differentiation-induced motor neuron in Example I-1, the changes over time in the neurite length were measured. A Bio station CT (Nikon Corp.) was used to measure the neurite length over time. FIG. 1 is a graph showing measurement results of changes over time in the neurite length. The vertical axis represents neurite length (relative value), and the horizontal axis represents the number of days of culturing from the start of differentiation induction.
(§3) Using the differentiation-induced motor neurons in Example I-1, drugs which cause the ALS phenotype to be restored were screened from existing drug libraries with the neurite length, ectopic localization of FUS protein, stress granule formation, LDH leakage ratio, CV-caspase 3-positive ratio, phosphorylated TDP-43 protein inclusion formation, and the like as indices.
(§4) As a result of the screening, ropinirole was found as a promising therapeutic agent for ALS. Tables 5 and 6 show the improvement ratio (%) in the ALS phenotype due to adding ropinirole to the medium. Here, ropinirole was added to the medium on days 35 to 40 from the start of the differentiation induction of each iPS cell. Here, it is assumed that days 35 to 40 from the start of differentiation induction correspond to the early stage of the ALS disease.
(§5) The improvement ratio (%) of the ALS phenotype was calculated by Equation (1).
(§6) [formula] [In Equation (1), A represents a measurement value of motor neurons induced to differentiate from iPS cells derived from ALS patients in the absence of ropinirole, and B represents a measurement value of motor neurons induced to differentiate from iPS cells derived from ALS patients in the presence of ropinirole, and C represents a measurement value of motor neurons induced to differentiate from iPS cells derived from healthy subjects in the absence of ropinirole.]
(§7) Subsequently, in the same manner as above, the efficacy in cases of administering lower concentrations of ropinirole was evaluated.
(§8) Each drug was added to the medium at a final concentration of 10 μM.

[4] = tested on: motor neurons induced to differentiate from iPS cells derived from ALS patients (FUS-ALS) having a mutation in FUS; assay: Ectopic localization of FUS protein in the cytoplasm, FUS-ALS motor neurons
From the text: Therefore, on day 40 from the start of differentiation induction, each differentiation-induced motor neuron in Example I-1 was immunostained and the localization of FUS protein in the cytoplasm was examined.
as §3, §4, §5, §6, §7, §8

[5] = tested on: motor neurons differentiated from iPS cells derived from 24 patients having sporadic ALS (SALS); assay: CV caspase 3-positive ratio, 24 sporadic ALS patient models (Example III-5); conditions: final concentration 1 μM for 5 days
Experimental: In the same manner as in Example II-1, iPS cells derived from 24 patients having sporadic ALS (SALS) were differentiated into motor neurons and then ropinirole with a final concentration of 1 μM was added to the medium. In addition, for comparison, a group for which ropinirole was not added to the medium was prepared. In addition, as a control, a group for which iPS cells derived from healthy subjects were differentiated into motor neurons in the same manner as in Example I-1 was used. No ropinirole was added to the medium of these motor neurons. As the iPS cells derived from a healthy subject, the same cells as used in Example I-1 were used.
Below, each differentiated motor neuron is identified by the patient number from whom the neuron was derived.
In all of the motor neurons, the addition period of ropinirole was 5 days. The time to start the addition of ropinirole varied depending on the case and was from day 30 to day 70 from the start of the differentiation induction of each of the iPS cells.
Subsequently, for each motor neuron on day 5 after the addition of ropinirole, the ratio of CV caspase 3-positive neurons was measured in the same manner as in Example I-3.
FIG. 15 is a graph showing the measurement results of the ratio of CV caspase 3-positive neurons. […]

[6] = final concentration 0.1 μM, added days 35 to 40
[7] = final concentration 1 μM, added days 35 to 40
[8] = final concentration 10 μM, added days 35 to 40

Compound: CCCN(CCC)CCc1cccc2c1CC(=O)N2 [Ropinirole, 4-(2-di-n-propylaminoethyl)-2(3H)-indole]
- Number of stress granules [1]: significantly decreased
- Ratio of CV caspase 3-positive neurons [2]: significantly reduced
- Neurite length improvement ratio ([3]; final concentration 0.1 nM): 12.1%
- Neurite length improvement ratio ([3]; final concentration 1 nM): 49.4%
- Neurite length improvement ratio ([3]; final concentration 10 nM): 52.3%
- Neurite length improvement ratio [3, 6]: 50.4%
- Neurite length improvement ratio [3, 7]: 75.3%
- Neurite length improvement ratio [3, 8]: 77.2%
- Ectopic localization of FUS protein improvement ratio ([4]; final concentration 0.1 nM): 20.2%
- Ectopic localization of FUS protein improvement ratio ([4]; final concentration 1 nM): 45.8%
- Ectopic localization of FUS protein improvement ratio ([4]; final concentration 10 nM): 51.2%
- Ectopic localization of FUS protein improvement ratio [4, 6]: 55.8%
- Ectopic localization of FUS protein improvement ratio [4, 7]: 54.3%
- Ectopic localization of FUS protein improvement ratio [4, 8]: 74.4%
- Share of SALS cases in which the increase in CV caspase 3-positive ratio was suppressed ([5]; 16 of 22 cases): 72.73 % of SALS cases
- Cases in which the increase in CV caspase 3-positive ratio was suppressed ([5]; among 22 SALS cases with confirmed increase (of 24), FIG. 15): 16 cases
